Patent US20050020671A1, “Pharmaceutical formulation” (priority 2001, published 2005)
Structures can show the parent of a compound that is named as a salt.

Experiment: chemical compatibility of ranitidine hydrochloride and acetylsalicylic acid in contact
Format: physicochemical
Details: the two actives in physical contact; degradation products form, reaction manifest in a matter of days
Excerpt: British Patent No 2,105,193 discloses pharmaceutical compositions comprising a systemic non-steroidal anti-inflammatory drug and ranitidine or a physiologically acceptable salt thereof. […] These two active ingredients react chemically with each other to produce degradation products. The reaction becomes manifest in a matter of days and implies a serious stability problem for pharmaceutical compositions containing both active ingredients.

chemical compatibility with acetylsalicylic acid: clear chemical incompatibility
SMILES: CNC(=C[N+](=O)[O-])NCCSCc1ccc(CN(C)C)o1 [ranitidine hydrochloride, N-[2-[[[5-(dimethylamino)methyl]-2-furanyl]methyl]thio]ethyl-N′-methyl-2-nitro-1,1-ethanediamine]
